# Key:
# [1] = system: fully kindled Wistar rats; assay: Amygdala-kindling rat model; type: in vivo; conditions: challenge 1 h
# Method: Compounds were formulated in a 10% polyethylene glycol 400 (PEG 400) / 90% aqueous solution of 0.5 % methylcellulose (MC 0.5%). Firstly drugs are dissolved in PEG 400 and then suspended in MC 0.5 % for oral gavage at Xmg/5 mL/kg (X see table).
# • 1. Procedure: Adult male Wistar rats (Harlan Laboratories, Netherlands, or Charles Rivers, Germany; body weight 300-350 g) were stereotaxically implanted with twisted bipolar plastic-coated stainless steel electrode (MS333-2-BIU 10 mm, Plastics One) into the right basolateral amygdala under isoflurane anesthesia. To place the electrode, trepanations were made in the skull and the electrode was lowered into the right basolateral amygdala (from bregma: anteriorposterior (AP): -2.5 mm, medio-lateral (ML): -3.5 mm, dorso-ventral (DV): -8.6 mm; α=10^0) and secured to the skull with screws and dental acrylate. After one week of recovery, they were handled daily and habituated over one week to the kindling setup. Kindling procedure: For a kindling session each rat was placed individually into a smooth acrylic plastic, round-bottomed bowl (0 36 cm, height 36 cm, BASi movement-responsive caging system) and its intracranial implanted electrode was connected to the stimulator (STG4008, Multichannel Systems GmbH) and the recording devices (PowerLab 8/35, ADInstruments Ltd) via a cable (335-340/3 (C), Plastics One). For the kindling procedure, each rat was exposed once daily to an electrical stimulation and the behavioral symptoms of the evoked seizure were observed and classified according to the modified Racine scale (stage 0, arrest, wet dog shakes, normal behaviour; stage 1, facial twitches: nose, lips, eyes; stage 2, chewing, head nodding; stage 3, forelimb clonus; stage 4, rearing, falling on forelimbs; stage 5, rearing, falling on side or back, rolling). […] The duration of electroencephalographic seizures (afterdischarge, AD) was recorded using LabChart7 Pro software (ADInstruments Ltd). Simultaneously, videos were recorded to evaluate seizure stage (SS). • 2. Compound testing: Acute drug effects were evaluated in groups of 6-8 fully kindled rats in a randomized cross-over design with 48h between drug and vehicle applications. Following oral administration of drug or vehicle, drug testing included determination of the afterdischarge threshold (the minimal stimulation intensity necessary to evoke an afterdischarge (electroencephalographically measured neuronal hyper-synchronous activity with an amplitude 2-times higher than baseline amplitude and a frequency of […]) of at least 3 sec duration) and monitoring electroencephalographic and behavioral correlates of the evoked seizure at ADT (afterdischarge threshold), including AD duration and SS, by a experimenter blind to treatment assignment.
# [2] = molecular target: T1, Kv7.2/7.3 (human KCNQ2 and KCNQ3 genes) in HEK293 cells (Homo sapiens, UniProt O43525+O43526); assay: Kv7.2/3 assay (FLIPR potassium assay, agonist mode); type: cell-based; conditions: Kv7.2/7.3 activation, responses relative to Flupirtine
# T1 construct: host or cells: HEK293
# Method: HEK293 cells were stably transfected with the appropriate ion channel cDNA(s) (human KCNQ2 and KCNQ3 genes). Cells were cultured in Dulbecco’s Modified Eagle Medium /Nutrient mixture F-12 (D-MEM/F-12) supplemented with 10% fetal bovine serum, 100 U/mL penicillin G sodium, 100 µg/mL streptomycin sulfate and selection antibiotics. FLIPR Test Procedure: For FLIPR assay, cells were plated in 384-well black clear-bottomed microtiter plates (BD Biocoat Poly-D-Lysine Multiwell Cell Culture Plate) at 15′000 to 30′000 cells per well. Cells were incubated at 37° C. overnight or until cells reached sufficient density in the wells (near confluent monolayer) to use in fluorescence assays. […] Assays were performed with the FLIPR potassium assay kit (Molecular Devices) according to the manufacturer’s instructions. Dye-loading: Growth media was removed and replaced with 20 µL of dye loading buffer for 60 min at room temperature. FLIPR Recording (agonist mode): Stock solutions of test compounds were prepared at a concentration of 33.3 mM in DMSO. 5 µL of 5x concentrated test, vehicle, or control compounds solutions prepared in the stimulation buffer (K^+-free buffer with 5 mM TI^+) were added to each well and fluorescence recording was continued for 5 min. The agonist effect (EC50 and % effect) of test or control compounds on Kv7 channels was determined as follows: Raw data was exported using Screenworks® 4.2 software and the fluorescence traces were analysed using Microsoft Excel (Microsoft Corp., Redmond, WA). The test compounds responses were expressed as % of maximum response of the control compound Flupirtine (Sigma-Aldrich), which was tested at concentrations ranging from 0.03 to 100 µM. Concentration-response data were fitted to a Hill equation. Non-linear least squares fits were made assuming a simple binding model. If appropriate, fits were weighted by the standard deviation. No assumptions about the fit parameters were made; the fit parameters were determined by the algorithm.
EC50 [2],SMILES,AD duration [% vs veh] ([1]; 30 mg/kg po),Seizure stage [% vs veh] ([1]; 30 mg/kg po),AD duration [% vs veh] ([1]; 10 mg/kg po),Seizure stage [% vs veh] ([1]; 10 mg/kg po)
0.082 µM,"O=C(NCc1cccc(C(F)(F)F)c1)NC1CC(C(F)F)C1 (single isomer, unassigned) [Example 53, 1-(3-(Difluoromethyl)Cyclobutyl)-3-(3-(Trifluoromethyl)Benzyl)Urea]",-93 % vs veh,-81 % vs veh,,
0.059 µM,"O=C(NCc1cccc(C(F)(F)F)c1)NC12CC(C(F)F)(C1)C2 [Example 47, 1-(3-Difluoromethyl-Bicyclo[1.1.1]Pent-1-yl)-3-(3-Trifluoromethyl-Benzyl)-Urea]",,,-85 % vs veh,-70 % vs veh

# Source: patent publication US20230303486A1, “CYCLOBUTYL-UREA DERIVATIVES” (Idorsia Pharmaceuticals Ltd, priority 2020, published 2023)
